# Measured values published in EP2286808A1, “Cytohesin inhibitors” (Rheinische Friedrich-Wilhelms Universität, priority 2009, dated 2011).
# Assays:
# [1] = target: T1, sec7-domains of cytohesin-2 (ARNO) (Homo sapiens, UniProt Q99418); assay: guanine nucleotide exchange assay (GDP/GTP exchange on [Δ17]ARF1, tryptophan fluorescence); type: biochemical; conditions: for IC50: 250 nM [Δ17]ARF1, 10 nM ARNO-Sec7, 50 µM GTP, PBS pH 7.4, 37°C, read-out: IC50 value measured for the isolated Sec-7 domain of cytohesin-2; for inhibition of the sec7-domain of the isolated cytohesin-2 (relative exchange rate): 5µM amide compared with 5µM control SecinH3 (K), whose rate is set to 1, Fig. 1; for dual activity in cell adhesion and nucleotide exchange assays (summary in words): across nucleotide exchange and cell adhesion assays
# T1 construct: ARNO-Sec7 (amino acids 50-255 of ARNO) were expressed in Escherichia coli; inferred from pET15 vector and Ni-NTA purification; made in house; host or cells: Escherichia coli
# T1 sequence (Q99418 50-255): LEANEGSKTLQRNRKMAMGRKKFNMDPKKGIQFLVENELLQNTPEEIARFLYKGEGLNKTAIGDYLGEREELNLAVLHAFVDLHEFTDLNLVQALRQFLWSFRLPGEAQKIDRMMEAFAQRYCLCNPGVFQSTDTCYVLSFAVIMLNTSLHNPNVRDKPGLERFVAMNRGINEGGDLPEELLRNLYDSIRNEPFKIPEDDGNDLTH
# Description: The inhibition of the exchange activity of the sec7-domains of cytohesin-2 (ARNO) of the amides according to formulas (5) to (30) was determined by a guanine nucleotide exchange assay.
# For this purpose, the sec7-domains of cytohesin-2 (ARNO-Sec7) and [Δ17]ARF1, a mutant of the ADP-ribosylation factor (ARF) protein, were subcloned into pET15 vectors (Novagen) as described in Hafner, M. et al. Nature 444, 941-944 (2006). N-terminal truncated [Δ17]ARF1 (amino acids 18-181), lacking the first 17 amino acids and ARNO-Sec7 (amino acids 50-255 of ARNO) were expressed in Escherichia coli and purified by Ni-NTA chromatography (Ni-NTA agarose, Qiagen).
# The exchange from […] (GDP) to guanidine-triphosphate (GTP) induces a conformation change of the ribosylation factor, as a result of which the fluorescence of a tryptophan radical of the protein is increased. GDP/GTP exchange was measured on [Δ17][…] by tryptophan fluorescence because a large increase in intrinsic fluorescence of ARF occurs upon exchange of GDP for GTP. All measurements were performed in PBS (137 mM NaCl, 2.7 mM KCl, 10.2 mM Na2HPO4, 1.8 mM KH2PO4) pH 7.4, 3 mM MgCl2 at 37°C.
# [Δ17]ARF1 (1 µM) in PBS without MgCl2 was preincubated with 80 µM GDP in the presence of 2 mM ethylenediaminetetraacetic acid (EDTA) for 15 minutes. The bound GDP was stabilized by addition of MgCl2 at a final concentration of 3 mM and incubation for 5 minutes. For each exchange reaction 250 nM [Δ17]ARF1 was mixed with 10 nM ARNO-Sec7 (total volume 200 µl) in the absence or presence of inhibitoring amides according to formulas (5) to (30). The reaction was started by injection of 50 µM GTP.
# The tryptophan fluorescence was measured at excitation and emission wavelength of 280 nm and 340 nm respectively. All fluorescent measurements were performed with a Varioskan microplate reader (Thermo Scientific), in 96-well plates. For analysis all data were fitted by linear regression.
# The pan-active cytohesin inhibitor "SecinH3", a 1-, 2-, 4-substituted triazole according to formula (9) as disclosed in DE 10 2004 055 998 served as the control (K). The relative exchange rate of the control SecinH3 (K) was set to be 1.
# The relative exchange rate was determined by comparing the initial linear rise of the fluorescence signal (exchange rate) in the presence of 5µM of the amides according to formulas (5) to (30) with the exchange rate in the presence of 5µM control SecinH3 (K), whereas the latter was set to be 1.
# Further, the IC50 value inhibition of the sec7-domain of the isolated cytohesin-2 was determined. The IC50 value was be determined by plotting the initial linear rise of the fluorescence signal against the added concentrations of the amide. The IC50 value corresponds to the concentration of the amide at which the activity of the protein is reduced to half.
# [2] = tested on: adhesion of the T cell line Jurkat E6 to an immobilized ICAM-1-Fc-fusion protein; assay: cell adhesion assay, Jurkat E6 cells to immobilized ICAM-1-Fc-fusion protein; type: cell-based, human; conditions: 25 µM amide, OKT3 or PMA stimulation; 100% adhesion = 25 µM control SecinH3 (K); Fig. 3
# Description: The ability of the amides according to formulas (5) to (30) to inhibit adhesion of the T cell line Jurkat E6 to an immobilized ICAM-1(Inter-Cellular Adhesion Molecule 1)-Fc-fusion protein was tested. On the T cell side, this interaction is exclusively mediated by the β-2 integrin LFA-1 that was enabled to bind to immobilized ICAM-1 through stimulation of Jurkat cells with an anti-TCR (T cell receptor) antibody or with the phorbol ester PMA (Phorbol 12-myristate 13-acetate). Cell adhesion to ICAM-Fc was carried out on 96-well dishes and was read out by fluorescence detection of total input versus bound cells which had been labeled with the DNA dye H33342.
# Jurkat E6.1 cells were incubated in HBSS (Hank's BSS, PAA), 0.5% DMSO and, where indicated, 25 µM of the respective amide for one hour at 37°C, 5% CO2. After 30 minutes the cells were labeled with the fluorochrome bisbenzimide trihydrochloride H33342 (Sigma-Aldrich) at […] for 30 minutes at 37°C. 2 x 10^5 cells/ well were subsequently dispensed into a 96-well plate at 100µl/well. Prior to use plates were coated with 12µg/ml goat anti-human IgG for 90 minutes at 21°C, blocked with 1% BSA (Bovine serum albumin) in PBS overnight and incubated for 60 minutes with culture supernatants from CV-1 cells expressing an ICAM-1-Fc fusion protein.
# Cells were either stimulated with 5 µg/ml purified anti CD3 antibody (OKT3, hybridome of ATCC, mAb OKT3 purified on protein A, according to standard methods from Current Protocols in Immunology, 5th Ed., Coligan et al., Edts, Wiley 2004) or with 50 ng/ml PMA, respectively. Cells were allowed to adhere to the ICAM-1-Fc coated dishes for 15 minutes and unbound cells were washed off with Hank's BSS (PAA). Adherent cells were read out using a fluorescence plate reader (Synergy-HT1, Biotek) at 485 nm in triplicates.
# "100% adhesion" corresponds to the mean of OKT3 and PMA stimulated samples treated with 25 µM control control Secin H3 (K) as reference.
# [3] = tested on: Drosophila insulin signaling (d4E-BP mRNA levels in Drosophila S2 cells); assay: Drosophila insulin signaling assay, d4E-BP mRNA by quantitative RT-PCR; type: cell-based; conditions: 5 µg/ml insulin; for d4E-BP transcript levels: 10 µM amide for 18 hours, control SecinH3 (K) set to 1, Fig. 2
# Description: In order to evaluate potential interference of the amides according to formulas (5) to (30) with Drosophila insulin signaling, S2 (Schneider 2 insect cell line, Invitrogen) cells were grown under starvation conditions and subsequently treated with insulin. This triggers a strong activation of the insulin signaling cascade resulting in the nuclear exclusion of the forkhead-box transcription factor dFOXO, which in turn down-regulates the expression of the transcriptional repressor d4E-BP (eIF4E-binding protein). […] This was measured by quantitative RT-PCR and compared to the effect of the control SecinH3 (K) in the same assay.
# 0.5 x 10^6 S2 cells were grown in 24-well dishes in medium (Schneiders Drosophila Medium, PAN Biotech) without FCS (heat-inactivated fetal calf serum) representing starvation condition. Six hours after seeding cells were treated for 18 hours with 10 µM of the respective amide according to formulas (5) to (30) or 10 µM SecinH3 (K) as reference. 22 hours after seeding cells were treated with 5 µg/ml insulin (Sigma). Controls were performed without amide and/or without insulin treatment. The amides were dissolved in dimethyl sulfoxide (DMSO). Final DMSO concentration in the cell culture medium was 0.5 %.
# NucleoSpin 8 RNA Kit (Macherey-Nagel) was used for RNA preparation according to manufacturer's instructions. Genomic DNA digestion and first strand cDNA synthesis was carried out with 250 ng total RNA using QuantiTect Reverse Transkription Kit (Qiagen). Quantitative PCR was performed with the iQ5 Real-Time PCR detection system (Bio-Rad) and iQ SYBR Green Super Mix (Bio-Rad). Three reactions were done in parallel for each template. Real Time PCR was analysed using Bio-Rad iQ5 Optical System Software and Microsoft Excel.
# The d4E-BP mRNA level after treatment of cells with the amides according to formulas (5) to (30) compared to the control SecinH3 is shown in Fig. 2. The d4E-BP mRNA level after treatment of cells with the control SecinH3 (K) was set to be 1.
SMILES,IC50 [1],inhibition of the adhesion of the Jurkat E6.1 cells to ICAM-1 [2],d4E-BP transcript levels [3],increase in dFOXO-dependent d4E-BP transcript levels compared to the reference (K) ([3]; 10 µM amide),dose-response behaviour of inhibition in nucleotide exchange assay [1],potency in nucleotide exchange assay (summary in words) [1],inhibition of the sec7-domain of the isolated cytohesin-2 (relative exchange rate) [1],dual activity in cell adhesion and nucleotide exchange assays (summary in words) [1]
"COc1nc(-c2ccc3c(c2)OCO3)n(-c2ccc(NC(=O)CSc3ccccc3)cc2)n1 [SecinH3, reference compound]",11.4 µM,–,–,–,–,–,–,–
CC(C)(C)c1ccc(C(=O)Nc2ccc(NC(=O)/C=C/c3ccco3)cc2)cc1 [formula (5)],3.1 µM,better than that of the control (K),increased,~20 fold,displayed a dose-response behaviour,potent inhibitors,better than that of the control SecinH3 (K),–
CC(C)(C)c1ccc(C(=O)Nc2ccc(NC(=S)NC(=O)c3cccs3)cc2)cc1 [formula (6)],8 µM,better than that of the control (K),increased,–,–,potent inhibitors,better than that of the control SecinH3 (K),–
COc1nc(-c2ccc(C)cc2)n(-c2ccc(NC(=O)/C=C/c3ccccc3)cc2)n1 [formula (7)],–,–,–,–,–,–,better than that of the control SecinH3 (K),–
COc1ccc(-n2c(SCCC(=O)NC(N)=O)nnc2-c2ccc(C(C)(C)C)cc2)cc1Cl [formula (11)],–,better than that of the control (K),–,–,–,–,better than that of the control SecinH3 (K),dual activity
C=CCn1c(SCC(=O)Nc2nsc(-c3ccccc3)n2)nc2scc(-c3ccccc3)c2c1=O [formula (20)],2.1 µM,–,increased,–,displayed a dose-response behaviour,potent inhibitors,–,dual activity
CC(C)(C)c1ccc(C(=O)Nc2ccc(NC(=O)c3ccc4c(c3)OCO4)cc2)cc1 [formula (29)],–,better than that of the control (K),–,–,–,–,–,dual activity
